SMILES strings stand for the structures.

In series [1] the test system is SH-SY5Y cells. Kind of series: Neuroprotection against H2O2-induced oxidative stress, MTT test. It is filed as cell-based, human. The settings on record: H2O2 100 µM.
The subject of series [2] is SH-SY5Y cells. Kind of series: Neuroprotection against rotenone/oligomycin A, pre-incubation, MTT test. It is filed as cell-based, human. The settings on record: Rotenone/Oligomycin A 30/10 µM. For orientation: Tetrazolium assays rely on reduction of a dye to a coloured formazan, in cell work by metabolically active cells.
For a further series, the target named is T1, ACHE and BACE-1A (Homo sapiens, UniProt P22303+P56817).
T1 construct: the prepared pGBKT7-hACHE plasmid contained the cDNA fragment encoding for aa 52–577; obtained from the extracellular, N-terminal domain (aa 46–457) of BACE1A (GenBank: AF204943.1); host or cells: Saccharomyces cerevisiae Y2HGold (bait) mated with Y187 (prey)
T1 sequence (P22303 52-577): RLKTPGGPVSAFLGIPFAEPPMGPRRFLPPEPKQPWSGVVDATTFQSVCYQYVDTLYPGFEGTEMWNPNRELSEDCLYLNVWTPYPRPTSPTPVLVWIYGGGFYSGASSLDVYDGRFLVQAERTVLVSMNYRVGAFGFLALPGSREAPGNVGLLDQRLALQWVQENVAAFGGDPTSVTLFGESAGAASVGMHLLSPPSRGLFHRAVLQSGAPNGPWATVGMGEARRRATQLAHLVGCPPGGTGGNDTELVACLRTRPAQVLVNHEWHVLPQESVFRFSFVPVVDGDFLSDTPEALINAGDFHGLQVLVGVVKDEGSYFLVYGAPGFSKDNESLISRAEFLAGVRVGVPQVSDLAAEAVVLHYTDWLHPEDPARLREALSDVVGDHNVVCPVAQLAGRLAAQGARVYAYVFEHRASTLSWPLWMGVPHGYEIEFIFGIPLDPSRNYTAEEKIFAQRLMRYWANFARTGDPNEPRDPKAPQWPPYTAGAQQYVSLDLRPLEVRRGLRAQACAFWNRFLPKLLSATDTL
T1 sequence (P56817 46-457): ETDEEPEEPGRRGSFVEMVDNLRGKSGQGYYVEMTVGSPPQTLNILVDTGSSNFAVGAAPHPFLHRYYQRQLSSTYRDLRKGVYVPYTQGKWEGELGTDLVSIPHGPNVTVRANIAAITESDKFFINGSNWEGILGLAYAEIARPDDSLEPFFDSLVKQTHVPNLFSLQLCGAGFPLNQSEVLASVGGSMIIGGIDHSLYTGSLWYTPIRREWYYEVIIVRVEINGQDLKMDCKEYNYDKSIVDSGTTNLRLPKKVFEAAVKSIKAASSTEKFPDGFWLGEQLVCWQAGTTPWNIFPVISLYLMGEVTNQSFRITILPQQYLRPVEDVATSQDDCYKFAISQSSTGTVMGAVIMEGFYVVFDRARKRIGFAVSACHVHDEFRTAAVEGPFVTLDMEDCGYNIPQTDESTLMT
The experiment in a line: Yeast three-hybrid (Y3H) assay with β-galactosidase readout. It is filed as cell-based, Saccharomyces cerevisiae. The settings on record: 10 µM ligand. The procedure: The Y3H method was used to analyse the possible hybrid-ligand induced interactions between five selected proteins. […]. Yeast codon optimisation was performed to facilitate high expression of human recombinant proteins in Saccharomyces cerevisae. The fragments for the signal peptide (aa 1–51) and domain responsible for protein tetramerization (aa 578–611) were obtained from the cDNA encoding for human ACHE (GenBank M55040.1). Therefore, the prepared pGBKT7-hACHE plasmid contained the cDNA fragment encoding for aa 52–577. […]
The yeast ẞ-galactosidase microplate assay protocol (stopped) was used to evaluate the ẞ-galactosidase activity in the yeast culture according to the manufacturer’s instructions. […] Optical density was measured at 660 nm and absorbance at 420 nm by a Synergy H1 spectrophotometer (Biotek). In the quantitative ẞ-galactosidase assay, the hybrid ligand 3e was used. […]

A further series can be described thus: LogP assay (RP-HPLC). The settings on record: pH 11 mobile phases, read-out: logP Experimental. Format: physicochemical. The method, then: Methanol (POCH) was used as an organic modifier. Demineralised water was purified in our faculty. The methanol and water solution were set at pH 11 using 30 mM Triethylamine (TEA) (Sigma Aldrich). Ten isocratic mobile phases were used in the calibration and assay. The first mobile phase contained 50% methanol solution with 30 mM TEA and 50% water solution with 30 mM TEA. Each subsequent mobile phase contained 5% more methanol solution: the final mobile phase consisted of […] solution mix. The method required uncharged substances to be used during analysis.
These substances were selected on the basis of their structural similarity to the test compounds. The stock solutions contained about 1 mg/ml of calibration compounds or test compounds. The injection concentration was 100 µg/ml, and the injection volume was 7 µl.
A Waters 600 HPLC system was used with a photodiode array detector (PDA). The detector was set at the respective optimum absorption wavelength for each compound. The system used an Xbridge C18 50 mm × 4.6 mm i.d., 3.5 µm, chromatographic column (Waters). Data acquisition and processing were performed on Waters Millennium software.
The assay was performed according to Chao Liang et al. with modification. […]
Test compound was eluted by all mobile phases. […] The logP value was read from the calibration curve. […]

Regarding `O=C(NCCCCCCNc1c2c(nc3ccccc13)CCC2)c1cc(Cl)cc(Cl)c1` [Compound 3e], the “% neuroprotection” value in the series on SH-SY5Y cells [1] (compound 0.01 µM) is 40.04%; with SH-SY5Y cells [1] (compound 0.1 µM), 79.34%; in the series with SH-SY5Y cells [1] (compound 1 µM) it was 71%; with SH-SY5Y cells [2] (compound 0.0001 µM), 17.64%; with SH-SY5Y cells [2] (compound 0.001 µM) it was 12.46%; with SH-SY5Y cells [2] (compound 0.01 µM), 7.65%. Also, the “% neuroprotection” value in the series on SH-SY5Y cells [2] (compound 0.1 µM) amounted to 2.41%. Further, on ACHE and BACE-1A (96 h, triplicate), the “β-galactosidase activity (strength of interaction)” value is reported as 206.37 ± 4.85 units. Also, the “hybrid ligand-mediated interaction of ACHE-BACE-1A protein pair (blue colonies)” value on ACHE and BACE-1A (DDO and QDO/X/A plates) is “yielded blue colonies”. Besides, the chromatographic logP in the series “LogP assay (RP-HPLC)” came out at 5.44.

These data come from paper PMC9848259 (Journal of Enzyme Inhibition and Medicinal Chemistry, 2023).
